Laboratory results taken from patent US12453782B2, “Antibody-oligonucleotide conjugate” (priority 2018, dated 2025).

Legend:
[1] = pH dependent hydrolysis of the hydrazone bond of SO1861-EMCH (MALDI-TOF-MS); format: physicochemical; details: HCl solution at pH 3, two points in time
[2] = newly diagnosed glioblastoma (ABT-414); platinum-resistant ovarian cancer (IMGN853); cited from earlier work
[3] = system: HER14 cells (fibroblasts stably transfected with the human epidermal growth factor receptor); test: Viability assay (MTT) with HER14 cells, dianthin-EGF, SA1641 and polymeric structure (Example 11); format: cell-based; details: 72 h
Description: To test the efficacy of the invention, we conducted a viability assay with HER14 cells. These cells are fibroblasts stably transfected with the human epidermal growth factor receptor and therefore target cells for the targeted toxin dianthin-EGF. HER14 cells (2,000 cells/100 μL/well) were seeded into wells of 96-well-cell culture plates and incubated for 24 h in DMEM medium supplemented with 10% fetal calf serum and 1% penicillin/streptomycin at 37° C., 5% CO2 and 98% humidity. The different test substances (see results and FIG. 21) were then added in triplicates in a volume of 25 μL and supplemented with further 25 μL of medium. After an incubation of 72 h, 30 μL 3-(4,5-dimethylthiazol-2-yl)-2,5-diphenyltetrazolium bromide (0.5 mg/mL in water) was added per well and incubated for 2 h. Thereafter, the medium was carefully removed and replaced by an aqueous solution containing 10% (v/v) isopropanol, 5% (w/v) sodium dodecyl sulfate and 400 mM HCl, and incubated for 5 min. Solubilized formazan was photometrically quantitated at […] in a microplate reader (Spectra MAX 340 PC, Molecular Devices, Sunnyvale, CA, USA). Untreated cells were normalized to 1 and all samples referred to the untreated control. Significance was determined by unpaired two-sample t-tests.

HeLa cells = test: Co-administration of PAMAM, dendron or chloroquine with dianthin-EGF and SO1861 on HeLa cells (inhibition of endosomal escape, cell viability); format: cell-based, human; details: 500 nM PAMAM, PAMAM derivatives or chloroquine, 667 nM dendron, various SO1861 concentrations
Text: As control for the inhibition of endosomal acidification chloroquine was used.

[4] = system: SK-BR-3, JIMT-1, MDA-MB-468, A431, CaSki, HeLa, A2058; test: Control treatments, relative cell viability on various cancer cell lines (Example 4, FIG. 8); format: cell-based, human; details: wide range of toxin concentrations, up to 100.000 pM
Description: After treatment the cells were incubated for 72 hr at 37° C. before the cell viability was determined by a MTS-assay, performed according to the manufacturer's instruction (CellTiter 96® AQueous One Solution Cell Proliferation Assay, Promega). Briefly, the MTS solution was diluted 20× in DMEM without phenol red (PAN-Biotech GmbH) supplemented with 10% FBS (PAN-Biotech GmbH). The cells were washed once with 200 μL PBS per well, after which 100 μL diluted MTS solution was added per well. The plate was incubated for approximately 20-30 minutes at 37° C. Subsequently, the optical density at 492 nm was measured on a Thermo Scientific Multiskan FC plate reader (Thermo Scientific). For quantification the background signal of ‘medium only’ wells was subtracted from all other wells, before the ratio of untreated/treated cells was calculated, by dividing the background corrected signal of untreated wells over the background corrected signal of the treated wells.

## CC(=O)OC1C(C)OC(OC2C(C)OC(OC(=O)[C@]34CCC(C)(C)CC3C3=CCC5[C@@]6(C)CC[C@H](OC7OC(C(=O)O)C(O)C(OC8OCC(O)C(O)C8O)C7OC7OC(CO)C(O)C(O)C7O)[C@@](C)(/C=N/NC(=O)CCCCCN7C(=O)C=CC7=O)C6CC[C@@]5(C)[C@]3(C)C[C@H]4O)C(OC3OC(C)C(OC4OCC(O)C(OC5OC(CO)C(O)C(O)C5O)C4O)C(O)C3O)C2O)C(O)C1OC1OCC(O)C(O)C1O (stereo partly drawn) [SO1861-EMCH]
[1]
  hydrolysis of the hydrazone bond: responsive towards hydrolysis and gets cleaved

## depatuxizumab mafodotin: EGFR targeted ADC, AbbVie
[2]
  survival benefit in phase 3 trials: no survival benefit

## C[C@@H]1O[C@@H](O[C@H]2[C@H](OC(=O)[C@]34CCC(C)(C)C[C@H]3C3=CC[C@@H]5[C@@]6(C)CC[C@H](O[C@H]7O[C@H](C(=O)O)[C@@H](O)[C@H](O[C@@H]8OC[C@@H](O)[C@H](O)[C@H]8O)[C@H]7O[C@@H]7O[C@H](CO)[C@H](O)[C@H](O)[C@H]7O)[C@@](C)(C=O)[C@@H]6CC[C@@]5(C)[C@]3(C)CC4)O[C@H](C)[C@H](O[C@@H]3O[C@H](C)[C@@H](O)[C@H](O)[C@H]3O)[C@@H]2O)[C@H](O)[C@H](O)[C@H]1O[C@@H]1OC[C@@H](O)[C@H](O[C@@H]2OC[C@@H](O)[C@H](O)[C@H]2O)[C@H]1O [SA1641]
[3]
  effect on cells of 0.1 nM dianthin-EGF in the presence of SA1641: death of all cells

## CCN(CC)CCCC(C)Nc1ccnc2cc(Cl)ccc12 (stereo not drawn) [chloroquine]
HeLa cells
  effect on SO1861-mediated endosomal escape of the targeted toxin (dianthin-EGF) and cell killing: inhibit the SO1861-mediated endosomal escape of the targeted toxin and subsequent cell killing

## saporin
[4]
  influence on cell viability: do not or hardly have any influence on cell viability

## mirvetuximab soravtansine: folate receptor alpha targeted ADC, ImmunoGen
[2]
  survival benefit in phase 3 trials: no survival benefit
